US9199028B2, “Use of entrained neutrophils to treat metastatic and micrometastatic disease in at risk patients” (MEMORIAL SLOAN-KETTERING CANCER CENTER, priority 2010, dated 2015)
“Also recorded” adds a separate entry of the source.

Experiments:
4T1 cells = test: In vitro killing assay: TENs co-cultured with 4T1 cells in the presence of inhibitors or TGF-β; type: cell-based, mouse; conditions: TENs + 4T1 cells overnight; Apocynin 100 μM, Catalase 1,000 u/ml, Superoxide Dismutase 1,000 u/ml, Taurine 50 mM
From the text: Antibodies used for immunohistochemistry—MMP9, F4/80 and CCR2 (all from AbCam), Myeloperoxidase (Dako), Ly-6G and Cd11b (both from BD), and Cleaved Caspase 3 (Cell signalling). Antibodies used for western blotting—Actin (Sigma), CCL2 (AbCam) and CCL5 (R&D) p-SMAD2 (cell signalling). Antibodies used for FACS analysis FITC-Ly-6G, FITC-Cd11b, FITC-F4/80, FITC-Cd34 and FITC-c-Kit (all from BD) and VEGFR1-AP (R&D). Neutrophil Depletion Neutrophil depletion was achieved using daily IP injections of 12.5 μg Rat anti-Gr-1 antibody (BD) or Rat anti-Ly-6G antibody (BD) starting on day 3 post tumour engraftment. Starting on day 14, neutrophil depleting antibodies were administered twice daily. Control mice were injected with […] Rat isotype control (BD). Neutrophil depletion was monitored by manual blood differentials and FACS analysis. Flow Cytometry Peripheral blood was collected into EDTA-coated tubes, washed and resuspended in FACS buffer solution (PBS, 2% heat-inactivated FCS, 5 mM EDTA, and 0.02% sodium azide). The samples were blocked with […] and then incubated with fluorophore-conjugated antibodies. Erythrocytes were then lysed with FACS lysing solution (BD Biosciences) and the cell suspensions were analyzed on a FACSCalibur (BD Biosciences). Colony Formation Assay Female nude mice were orthotopically injected with 5×10^6 puromicin resistant 4T1 cells. On days 7 and 14 post tumour engraftment the mice were sacrificed and perfused with PBS. The lungs and livers were removed, washed with PBS and dissociated with Collagenase A (Roche). The single cell suspension was then plated onto puromicin containing media and selected for 14 day. Colonies were stained with Methylene-Blue and counted manually. Mouse Neutrophil Purification Whole blood was collected by cardiac puncture using heparinized (Sigma) syringe. The blood was diluted with 5 volumes of PBS containing 0.5% BSA and subjected to a discontinuous Histopaque (Sigma) gradient (1.077 and 1.119). Neutrophils were collected from the 1.077-1.119 interface, lymphocytes and monocytes collected from the plasma-1.077 interface. RBCs were eliminated by hypotonic lysis. The cells were washed twice with PBS-BSA and re-suspended in OptiMEM (Invitrogen) 0.5% FBS in a final concentration of 2×10^6 cells/ml. Neutrophil purity and viability were determined visually and were consistently >98%. Human Neutrophil Purification As part of a Memorial Sloan-Kettering Cancer Center institutionally approved protocol, blood samples (˜10 cc) were collected from healthy volunteers or from patients who were already having blood drawn for pre-surgical testing. Patients were consented accordingly as part of the approved protocol. […] Patients had either mastectomies or lumpectomies planned and had blood drawn prior to definitive surgical removal of their primary tumor or chemotherapy. Blood samples were transferred to the lab for analysis no more than 1 hour post-blood draw. Heparinzed blood (20 U/ml final) was mixed with an equal volume of Dextran 500 (3% in saline) and incubated 30 minutes at room temperature. The leukocyte-rich supernatant was layered on top of histopaque 1077 (Sigma) and centrifuged. Neutrophils, collected in the pellet fraction, were resuspended in 10 ml 0.2% NaCl for 30 seconds to remove contaminating erythrocytes. Isotonicity was restored by the addition of 10 ml 1.6% NaCl. Neutrophils were than washed three times in Hanks's balanced salt solution and resuspended in RPMI+FCS2%. In vitro Killing Assay Luciferase labelled cells (5,000/well) were plated on a 96-well, flat bottom white polystyrene tissue culture plate in OptiMEM 0.5% FBS (mouse neutrophils) or RPMI 2% FBS (human neutrophils). 4 hours later, purified neutrophils (100,000/well for mouse neutrophils and 5000 for human neutrophils) were added to the plated tumour cells and co-cultured overnight. […]

4T1 tumour-bearing mice = test: In vivo administration of Apocynin, spontaneous metastasis assay; design: species or system mouse; conditions: Apocynin 2.4 g/liter in drinking water from 24 hours after orthotopic 4T1 injection, vs control
From the text: 4T1, B16-F10, and Lewis Lung Carcinoma (LLC) murine tumour cell lines as well as the human MCF7 and MDA-MB-231 mammary tumour cell lines were purchased from the ATCC. The human 4175 (LM2) cell line was described in Minn, et al., Nature 436:518-524 (2005), herein incorporated by reference). CCL2 and CCL5 knockdown 4T1 cells were generated by lentiviral transduction with CCL2 and CCL5 specific shRNAs from the SKI shRNA lentiviral collection. 4T1, MCF7 and 4175 were orthotopically injected into the mammary fat pad. B16-F10 and LLC cells were injected intradermally. Spontaneous Metastasis Assay 4T1 cells were transduced with pLVX based lentiviral particles encoding for firefly luciferase. Balb/C or nude female mice were orthotopically injected with 5×10^6 luciferase labelled cells. Metastatic progression was monitored using IVIS200 imaging system to measure lung specific luciferase activity starting on day 3 post tumour engraftment. Analysis of metastases size distribution and number was done histologically. Tissue Injury Female FVB mice were anesthetized and shaved at the wounding site. An area of skin (4 mm in diameter) area of skin was surgically removed from the dorsal region. […]
Mice were orthotopically injected with 5×10^6 luciferase labelled 4T1 cells. […] Formation of lung metastases was monitored using the IVIS-200 optical in vivo imaging system. […]

[1] = TGFbeta inhibitor, Tocris; cited from earlier work

COc1cc(C(C)=O)ccc1O [Apocynin]
neutrophil (TEN) mediated tumour-cell killing in the presence of inhibitor (4T1 cells): completely inhibits the neutrophil mediated tumour-cell killing | spontaneous lung metastasis (lung specific luciferase activity) (4T1 tumour-bearing mice): enhanced; also recorded: enhances metastasis

NC(=O)c1ccc(-c2nc(-c3ccc4c(c3)OCO4)c(-c3ccccn3)[nH]2)cc1 [SB431542]
IC50 [1]: 94 nM
